The target in experiment [1] is chicken relaxin family peptide 1 receptor (cRXFP1) (chicken).
The subject of experiment [2] is cRLN3 mRNA expression in cultured chicken pituitary cells. Nature of the experiment: cRLN3 mRNA expression (qPCR) in cultured pituitary cells of 4-week-old female chicks. The format is cell-based. A general note: In qPCR the cycle at which signal appears reflects the starting amount.
Protocol: (§3) The primers (10 μM), dNTP (10 mM), easy Taq buffer, easy Taq DNA polymerase (TransGen Biotech), Eva Green (Biotium), MilliQ-H2O, and templates were mixed in a total volume of 20 μl. Then the reaction mix was conducted on the CFX96 Real-Time PCR Detection System (Bio-Rad). The amplification conditions included an initial denaturation for 10 min at 94°C followed by 20 s of denaturation at 94°C, 15 s annealing at 60°C, and 30 s extension at 72°C for 40 cycles.
To explore the regulatory effects of GnRH/CRH/E2/P4 on cRLN3, the anterior pituitaries isolated from 4-week-old female chicks were sliced and digested by 0.25% trypsin at 37°C for 20 min. The dispersed pituitary cells were cultured at a density of 5 × 10^5 cells/well in Medium 199 supplemented with 15% fetal bovine serum. Then, the medium was replaced with a serum-free M199 medium and the cells were incubated with GnRH (1–100 nM), CRH (0.1–10 nM), E2 (100 nM), and P4 (100 nM) for different duration times (4 h/24 h). […] The total RNA was then extracted from cultured pituitary cells and the expression of RLN3 and β-actin mRNA was assayed by qPCR.
(§4) The relative mRNA levels of target genes were first calculated as the ratios to that of β-actin and then expressed as fold change (or the percentage) compared to their respective controls (chosen tissues). The data were analyzed by Student’s t-test (between two groups), or by one-way ANOVA followed by the Dunnett test in GraphPad Prism 7 (GraphPad Software, San Diego, CA).
Experiment [3] relates to relaxin family peptide 2 receptor (RXFP2). Conditions: ref Kumagai et al., 2002; Hsu et al., 2003; cited from earlier work. An excerpt:
(§1) As the typical member of the insulin superfamily, the RLNs bind their receptors to play their physiological roles. In mammals, RLN1 and RLN2 bind the relaxin family peptide 1 receptor (RXFP1) for downstream signaling ([Bathgate et al., 2013]). As their cognate receptor, RXFP1, which is also called the leucine-rich repeat-containing G-protein-coupled receptor 7 (LGR7), is capable of coupling to multiple G-proteins, thus triggering the pathways including cAMP accumulation ([Halls et al., 2006]; [Halls et al., 2007]; [Halls et al., 2009]), ERK1/2 phosphorylation, NO production, and other signalin ...

For experiment [4] the following is noted: intraventricular (icv) injection, ref McGowan et al., 2008, 2014; cited from earlier work. An excerpt: (§2) Since GnRH is pulsed secreted and negatively regulated by CRH ([Ciechanowska et al., 2010]), the expression of RLN3 mRNA may be regulated by CRH. As the key player in the hypothalam ...
In experiment [5] the test system is rat hypothalamic explants. Conditions: ref McGowan et al., 2008, 2014; cited from earlier work.
Source text: as §2

Experiment [6] has as its system RXFP3. Conditions: human RXFP3, Gαi/o coupled, ref Liu et al., 2003b, 2005, Bathgate et al., 2006, van der Westhuizen et al., 2007; cited from earlier work.
Source text: as §1

The next experiment relates to RXFP1. Conditions: ref Sudo et al., 2003, cited from earlier work. An excerpt:
As the typical member of the insulin superfamily, the RLNs bind their receptors to play their physiological roles. In mammals, RLN1 and RLN2 bind the relaxin family peptide 1 receptor (RXFP1) for downstream signaling ([Bathgate et al., 2013]). […] However, only a dose-dependent increase in luciferase activity in HEK293 cells expressing chicken cRXFP1 is detected in the present study which is different from the report in mammalian species that RXFP1 is capable of coupling to Gs and other G-proteins (Gi/o), thus showing a biphasic pattern o ...

Experiment [7] deals with RXFP3. Conditions: ref Liu et al., 2005; cited from earlier work. From the text: Although cRLN3 is able to activate both cRXFP1 and cRXFP3, the potency of cRLN3 for cRXFP1 activation is at least 10-fold higher than that for cRXFP3. […] The present study supports that chicken RLN3 is a functional analog of rhRLN3. However, our finding contrasts with that of mammalian species. […] The difference may result from ligand–receptor interaction mo ...

Experiment [8] has as its system E2 production during follicular development. Conditions: female teleost fish; ref Wilson et al., 2009; Yang et al., 2020; cited from earlier work. An excerpt:
Supporting evidence also comes from the high expression of its cognate receptor (cRXFP1) in chicken tissues. Similar to rats, RXFP1 is highly expressed in the uterus involving uterine contractions ([Hsu et al., 2002]; [Vodstrcil et al., 2010]). In addition, cRXFP1 is also detected to be expressed highly in a wide range of female tissues (infundibulum, isthmus, uterus, and vagina), th ...

The subject of experiment [9] is cRLN3 mRNA expression in cultured chicken pituitary cells. Conditions: dihydrotestosterone 100 nM, 4 h/24 h; male chick pituitary cells; qPCR.
Protocol: as §3
To explore the regulatory effects of GnRH/CRH/E2/P4 on cRLN3, the anterior pituitaries isolated from 4-week-old female chicks were sliced and digested by 0.25% trypsin at 37°C for 20 min. The dispersed pituitary cells were cultured at a density of 5 × 10^5 cells/well in Medium 199 supplemented with 15% fetal bovine serum. Then, the medium was replaced with a serum-free M199 medium and the cells were incubated with GnRH (1–100 nM), CRH (0.1–10 nM), E2 (100 nM), and P4 (100 nM) for different duration times (4 h/24 h). […]
as §4
The target in experiment [10] is chicken relaxin family peptide 3 receptor (cRXFP3) (chicken).
Experiment [11] has as its target chicken relaxin family peptide 1 receptor (cRXFP1) (chicken). This is another data set of the same source.
For the next experiment, the system named is CART. Conditions: chicken pituitary, ref Cai et al., 2015, Mo et al., 2019; cited from earlier work. An excerpt:
Till present, a total of five genes (LHB, FSHB, GRP, CART, and RLN3) have been detected to be abundantly expressed in chicken pituitary gonadotrope cells ([Mo et al., 2017]; [Zhang et al., 2021]). Although these genes concentrate on the same cell cluster, these genes vary in sexual distribution patterns, cell co-localization profiles, and the hypothalamus regulation networks. For example, RLN3 and GRP show an abundance in female gonadotrope cells while LHB, FSHB, and CART show a higher expression in male pituitary cells. In addition, all cells expressing RLN3 overlap with the cells expressing ...

Another experiment concerns cRXFP1. Put plainly: pGL3-CRE-luciferase reporter (cAMP/PKA), HEK293 cells expressing cRXFP1. The format is cell-based, chicken. Here is the method: According to our previously established methods ([Liu et al., 2019]; [Jiang et al., 2022]), two cell-based luciferase reporter systems (pGL3-CRE-luciferase and pGL3-NFAT-RE-luciferase) were used to verify whether cRLN3cm is biologically active and capable of activating cRXFP1 and cRXFP3. In brief, HEK293 cells transiently expressing each receptor (cRXFP1 and cRXFP3) were treated with 30 μl serum-free medium containing cRLN3cm or pcDNAcm (0.001–10 μl) for 6 h, and the receptor-activated cAMP/PKA pathways and calcium mobilization were then monitored by pGL3-CRE-luciferase and pGL3-NFAT-RE-luciferase reporter systems, respectively. HEK293 cells expressing empty pcDNA3.1 (+) were used as a negative control.
To compare the functional difference between chicken RLN3 and human RLN3, recombinant human RLN3 (rhRLN3, 10^–12 to 10^–7 M, 6 h) was used to treat HEK293 cells expressing cRXFP1 or cRXFP3, respectively, and its potency in activating cRXFP1 and cRXFP3 was also evaluated.
To verify whether chicken RLN3 can activate RXFP1 or RXFP3, a cRLN3-conditioned medium (cRLN3cm, 0.001–10 μl) was used to treat HEK293 cells expressing cRXFP1/cRXFP3. Receptor activation was examined by pGL3-CRE-luciferase and pGL3-NFAT-RE-luciferase reporter systems established in our previous studies ([Liu et al., 2019]).

“Also recorded” adds a separate entry of the source.

In the case of “chicken relaxin 3 (cRLN3), in conditioned medium of HEK293 cells transfected with the cRLN3 expression plasmid (ligand)”, in experiment [1], the potency of cRLN3cm in activating cRXFP1 relative to cRXFP3, pGL3-CRE-luciferase reporter in HEK293 cells was over 10 fold.
As to `CC(=O)[C@H]1CC[C@H]2[C@@H]3CCC4=CC(=O)CC[C@]4(C)[C@H]3CC[C@]12C` [P4, progesterone], in experiment [2] (progesterone 100 nM, 4 h/24 h, qPCR), the “effect of P4 on cRLN3 mRNA expression” value was “could not affect the expression of cRLN3 mRNA”.
As for insulin-like peptide 3 [INSL3], the RXFP2 downstream signaling entry in experiment [3] is “cAMP level increase and thymidine incorporation”.
Consider relaxin 3 [RLN3], for which the “plasma LH, ACTH and corticosterone levels” value in [4] was “can also increase plasma LH, ACTH, and corticosterone levels”. In addition, the “release of GnRH and CRH from hypothalamic explants” value in experiment [5] was “can stimulate rat hypothalamic explants to release GnRH and CRH”. For the same compound, the “RXFP3, cAMP level on ligand binding” value in the experiment with RXFP3 [6] is “cAMP level decrease upon ligand binding”. For the same compound, the “RXFP1 activation, cAMP production” value with RXFP1 (HEK293T cells) is “able to activate RXFP1 inducing a dose-dependent increase in cAMP production”. In addition, in the experiment with RXFP1 (mammals, Halls et al., 2006), the “RXFP1 activation in mammals” value is “RXFP1 can be activated by RLN3”. Besides, the “potency on RXFP3 compared with RXFP1 in mammals” value in the experiment with RXFP3 [7] is “a higher potency for RXFP3 activation than for RXFP1”. The “production of E2 during follicular development” value in [8] was “promotes the production of E2 during follicular development”.
For `C[C@]12CCC(=O)C[C@@H]1CC[C@@H]1[C@@H]2CC[C@]2(C)[C@@H](O)CC[C@@H]12` [DHT, dihydrotestosterone], in experiment [9], the “effect of DHT on cRLN3 mRNA expression” value is on record as “could not affect the expression of cRLN3 mRNA”.
In turn, “recombinant human relaxin 3 (rhRLN3) (ligand)” yielded an EC50 of inhibition of forskolin-stimulated luciferase activity, cAMP/PKA pathway (pGL3-CRE-luciferase reporter) in HEK293 cells expressing cRXFP3; rhRLN3 10^-12 to 10^-7 M, 6 h in experiment [10] of 41.5 nM. In [11], this compound displayed an EC50 of activation, Ca2+ pathway (pGL3-NFAT-RE-luciferase reporter) in HEK293 cells expressing cRXFP1; rhRLN3 10^-12 to 10^-7 M, 6 h of 21.1 nM and an EC50 of activation, cAMP/PKA pathway (pGL3-CRE-luciferase reporter) in HEK293 cells expressing cRXFP1; rhRLN3 10^-12 to 10^-7 M, 6 h of 2.68 nM.
For the compound corticotropin-releasing hormone [CRH], in [2] (CRH 10 nM, 4 h and 24 h, qPCR, fold vs control), the “effect of CRH on cRLN3 mRNA expression, time course” value is on record as “significantly increase the expression of cRLN3 mRNA in a time-dependent manner”. The “effect of CRH on cRLN3 mRNA expression, dose response” value in experiment [2] (CRH 0.1, 1, 10 nM, 24 h, qPCR, N = 4) is “could increase the expression level of cRLN3 mRNA in a dose-dependent manner; also recorded: potently stimulates the expression of cRLN3 in a dose- and time-dependent manner”. Also, in experiment [2] (CRH 0.1–10 nM, 24 h vs GnRH 1–100 nM, 4 h), the “stimulation of cRLN3 mRNA expression, CRH compared with GnRH” value is on record as “the stimulation effect of CRH was higher than that of GnRH”. For the same compound, the “regulation of CART, GnRH compared with CRH” value in the experiment with CART is on record as “equal potency”.
In the case of “Chicken gonadotropin-releasing hormone (QHWSYGLQPG; Gonadoliberin-1; UniProt P37042 24-33, looked up) [GnRH, synthesized using solid-phase Fmoc chemistry (GL Biochem, Shanghai, China)]”, the “effect of GnRH on cRLN3 mRNA expression, 4 h” value in experiment [2] (GnRH 10 nM, 4 h, qPCR, fold vs control) is given as “slightly increase the expression of cRLN3 mRNA”. Further, in [2] (GnRH 10 nM, 24 h, qPCR, fold vs control), the “effect of GnRH on cRLN3 mRNA expression, 24 h” value is on record as “not able to further regulate the expression of cRLN3 mRNA”. Moreover, the “effect of GnRH on cRLN3 mRNA expression, dose response” value in experiment [2] (GnRH 1, 10, 100 nM, 4 h, qPCR, N = 4) is “could increase the expression level of cRLN3 mRNA in a dose-dependent manner; also recorded: could only weakly stimulate the mRNA expression of cRLN3”. Also, the “regulation of CART, GnRH compared with CRH” value with CART is listed as “equal potency”.
For the compound chicken relaxin 3 [cRLN3], the “potency on cRXFP1 compared with cRXFP3 (in words)” value with cRXFP1 (HEK293 cells expressing cRXFP1 or cRXFP3) is on record as “cRXFP1 showed a higher binding potency with cRLN3 than cRXFP3”. Besides, the “potency in activating cRXFP1 relative to cRXFP3” value in the experiment with cRXFP1 (fold more potent on cRXFP1 than on cRXFP3, cRLN3cm, HEK293 cells) is given as “at least 10 fold”.
For the compound `C[C@]12CC[C@@H]3c4ccc(O)cc4CC[C@H]3[C@@H]1CC[C@@H]2O` [E2, 17β-estradiol], in experiment [2] (17β-estradiol 100 nM, 4 h, qPCR), the “effect of E2 on cRLN3 mRNA expression, 4 h” value is reported as “could increase the expression level of cRLN3 mRNA; also recorded: found to increase the expression of cRLN3”. For the same compound, the “effect of E2 on cRLN3 mRNA expression, 24 h” value in experiment [2] (17β-estradiol 100 nM, 24 h, qPCR) is reported as “could not regulate the mRNA expression of cRLN3”.

The values are drawn from publication PMC9676923, “Characterization of relaxin 3 and its receptors in chicken: Evidence for relaxin 3 acting as a novel pituitary hormone” (Frontiers in Physiology, 2022).
